Data reported in US20070128217A1 (priority 2003, published 2007).

Tests used:
[1] = system: antibodies in sera from SARS patients (sera 1a, 1b, 2, 6, 37, 62, London, SARS-yellow, SARS-green); format: binding, human; parameters: Binding of serum 6 to linear peptides of protein X1 of SARS-CoV Urbani / Binding of serum 37 to linear peptides of protein X1 of SARS-CoV Urbani / Binding of serum 6 to looped/cyclic peptide (PEPSCAN-ELISA) / Binding of serum 37 to looped/cyclic peptide (PEPSCAN-ELISA) / Binding of serum 37 to looped/cyclic peptides of protein X1 of SARS-CoV Urbani / Binding of serum 6 to linear peptides of protein X2 / Binding of serum 37 to linear peptides of protein X2 / Binding of serum 37 to looped/cyclic peptides of protein X2 of SARS-CoV Urbani / Binding of serum 6 to linear peptides of protein M of SARS-CoV Urbani / Binding of serum 37 to linear peptides of protein M of SARS-CoV Urbani / Binding of serum 6 to looped/cyclic peptides of protein M of SARS-CoV Urbani / Binding of serum 37 to looped/cyclic peptides of protein M of SARS-CoV Urbani / Binding of serum 6 to linear peptides of protein X3 of SARS-CoV Urbani / Binding of serum 37 to linear peptides of protein X3 of SARS-CoV Urbani / Binding of serum 37 to looped/cyclic peptides of protein X3 of SARS-CoV Urbani / Binding of serum 6 to linear peptides of protein X4 of SARS-CoV Urbani / Binding of serum 37 to linear peptides of protein X4 of SARS-CoV Urbani / Binding of serum 37 to looped/cyclic peptides of protein X4 of SARS-CoV Urbani / Binding of serum 6 to linear peptides of protein X5 of SARS-CoV Urbani / Binding of serum 37 to linear peptides of protein X5 of SARS-CoV Urbani / Binding of serum 37 to looped/cyclic peptides of protein X5 of SARS-CoV Urbani / Binding of serum 6 to linear peptides of protein N of SARS-CoV Urbani / Binding of serum 37 to linear peptides of protein N of SARS-CoV Urbani / Binding of serum 6 to linear peptide (PEPSCAN-ELISA) / Binding of serum 1a to looped/cyclic peptides of protein N of SARS-CoV Urbani / Binding of serum 1b to looped/cyclic peptides of protein N of SARS-CoV Urbani / Binding of serum 2 to looped/cyclic peptides of protein N of SARS-CoV Urbani / Binding of serum 6 to looped/cyclic peptides of protein N of SARS-CoV Urbani / Binding of serum 37 to looped/cyclic peptides of protein N of SARS-CoV Urbani / Binding of serum 62 to looped/cyclic peptides of protein N of SARS-CoV Urbani / Binding of serum London to looped/cyclic peptides of protein N of SARS-CoV Urbani / Binding of serum SARS-green to looped/cyclic peptides of protein N of SARS-CoV Urbani: unit not given here
[2] = system: rabbit serum obtained by immunizing a rabbit with the SARS-CoV strain Frankfurt 1; format: binding; parameters: Binding of a rabbit serum to linear peptides / Binding of a rabbit serum to looped peptides / Rabbit serum linear peptides / Rabbit serum looped peptides / Binding of a rabbit serum to linear peptides of protein N of SARS-CoV Urbani (Rabbit serum linear peptides) / Binding of a rabbit serum to looped/cyclic peptides of protein N of SARS-CoV Urbani (Rabbit serum looped peptides): unit not given here
[3] = system: control sera (pooled serum of ten healthy LUMC hospital workers; commercial negative donor pooled serum from the Dutch bloodbank); format: binding, human; parameters: Binding of Control serum LUMC to linear peptides / Binding of Control serum Blood-bank to linear peptides / Binding of Control serum LUMC to looped peptides / Binding of Control Serum Blood-Bank to Looped peptides / Binding of Control serum LUMC to linear peptides of the protein M of SARS-CoV Urbani / Binding of Control serum Blood-bank to linear peptides of the protein M of SARS-CoV Urbani / Binding of Control serum LUMC to looped peptides of the protein M of SARS-CoV Urbani / Binding of Control Serum Blood-Bank to Looped peptides of the protein M of SARS-CoV Urbani: unit not given here

NLVIGFLFLAWIMLL
Binding of serum 1a to linear peptides of protein M of SARS-CoV Urbani [1]: 0.7
Binding of serum 1a to looped/cyclic peptides of protein M of SARS-CoV Urbani [1]: 0.7
Binding of serum 1b to linear peptides of protein M of SARS-CoV Urbani [1]: 0.5
Binding of serum 1b to looped/cyclic peptides of protein M of SARS-CoV Urbani [1]: 0.6
Binding of serum 2 to linear peptides of protein M of SARS-CoV Urbani [1]: 0.5
Binding of serum 2 to looped/cyclic peptides of protein M of SARS-CoV Urbani [1]: 0.5
Binding of serum 6 to linear peptides of protein M of SARS-CoV Urbani [1]: 0.3
Binding of serum 6 to looped/cyclic peptides of protein M of SARS-CoV Urbani [1]: 0.6
Binding of serum 37 to linear peptides of protein M of SARS-CoV Urbani [1]: 0.6
Binding of serum 37 to looped/cyclic peptides of protein M of SARS-CoV Urbani [1]: 0.6
Binding of serum 62 to linear peptides of protein M of SARS-CoV Urbani [1]: 0.7
Binding of serum 62 to looped/cyclic peptides of protein M of SARS-CoV Urbani [1]: 0.7
Binding of serum London to linear peptides of protein M of SARS-CoV Urbani [1]: 0.3
Binding of serum London to looped/cyclic peptides of protein M of SARS-CoV Urbani [1]: 0.3
Binding of serum SARS-green to linear peptides of protein M of SARS-CoV Urbani [1]: 0.2
Binding of serum SARS-green to looped/cyclic peptides of protein M of SARS-CoV Urbani [1]: 0.3
Binding of serum SARS-yellow to linear peptides of protein M of SARS-CoV Urbani [1]: 0.0
Binding of serum SARS-yellow to looped/cyclic peptides of protein M of SARS-CoV Urbani [1]: 0.5
Rabbit serum linear peptides [2]: 0.2
Rabbit serum looped peptides [2]: 0.2
Binding of Control Serum Blood-Bank to Looped peptides of the protein M of SARS-CoV Urbani [3]: 0.6
Binding of Control serum Blood-bank to linear peptides of the protein M of SARS-CoV Urbani [3]: 0.5
Binding of Control serum LUMC to linear peptides of the protein M of SARS-CoV Urbani [3]: 0.3
Binding of Control serum LUMC to looped peptides of the protein M of SARS-CoV Urbani [3]: 0.8

NSVTDTIVVTEGDGI
Binding of serum 1a to linear peptides of protein X1 of SARS-CoV Urbani [1]: 0.6
Binding of serum 1a to looped/cyclic peptides of protein X1 of SARS-CoV Urbani [1]: 0.4
Binding of serum 1b to linear peptides of protein X1 of SARS-CoV Urbani [1]: 0.5
Binding of serum 1b to looped/cyclic peptides of protein X1 of SARS-CoV Urbani [1]: 0.3
Binding of serum 2 to linear peptides of protein X1 of SARS-CoV Urbani [1]: 0.4
Binding of serum 2 to looped/cyclic peptides of protein X1 of SARS-CoV Urbani [1]: 0.2
Binding of serum 6 to linear peptides of protein X1 of SARS-CoV Urbani [1]: 0.4
Binding of serum 6 to looped/cyclic peptides of protein X1 of SARS-CoV Urbani [1]: 0.2
Binding of serum 37 to linear peptides of protein X1 of SARS-CoV Urbani [1]: 0.5
Binding of serum 37 to looped/cyclic peptides of protein X1 of SARS-CoV Urbani [1]: 0.4
Binding of serum 62 to linear peptides of protein X1 of SARS-CoV Urbani [1]: 0.4
Binding of serum 62 to looped/cyclic peptides of protein X1 of SARS-CoV Urbani [1]: 0.4
Binding of serum London to linear peptides of protein X1 of SARS-CoV Urbani [1]: 0.2
Binding of serum London to looped/cyclic peptides of protein X1 of SARS-CoV Urbani [1]: 0.2
Binding of serum SARS-green to linear peptides of protein X1 of SARS-CoV Urbani [1]: 0.2
Binding of serum SARS-green to looped/cyclic peptides of protein X1 of SARS-CoV Urbani [1]: 0.3
Binding of serum SARS-yellow to linear peptides of protein X1 of SARS-CoV Urbani [1]: 0.6
Binding of serum SARS-yellow to looped/cyclic peptides of protein X1 of SARS-CoV Urbani [1]: 0.3
Binding of a rabbit serum to linear peptides [2]: 0.1
Binding of a rabbit serum to looped peptides [2]: 0.5
Binding of Control Serum Blood-Bank to Looped peptides [3]: 0.4
Binding of Control serum Blood-bank to linear peptides [3]: 0.3
Binding of Control serum LUMC to linear peptides [3]: 0.4
Binding of Control serum LUMC to looped peptides [3]: 0.5

NTRGNTYSTAWLCAL
Binding of serum 1a to linear peptides of protein X5 of SARS-CoV Urbani [1]: 0.9
Binding of serum 1a to looped/cyclic peptides of protein X5 of SARS-CoV Urbani [1]: 0.4
Binding of serum 1b to linear peptides of protein X5 of SARS-CoV Urbani [1]: 0.6
Binding of serum 1b to looped/cyclic peptides of protein X5 of SARS-CoV Urbani [1]: 0.2
Binding of serum 2 to linear peptides of protein X5 of SARS-CoV Urbani [1]: 0.6
Binding of serum 2 to looped/cyclic peptides of protein X5 of SARS-CoV Urbani [1]: 0.4
Binding of serum 6 to linear peptides of protein X5 of SARS-CoV Urbani [1]: 0.7
Binding of serum 6 to looped/cyclic peptides of protein X5 of SARS-CoV Urbani [1]: 0.2
Binding of serum 37 to linear peptides of protein X5 of SARS-CoV Urbani [1]: 0.7
Binding of serum 37 to looped/cyclic peptides of protein X5 of SARS-CoV Urbani [1]: 0.5
Binding of serum 62 to linear peptides of protein X5 of SARS-CoV Urbani [1]: 0.7
Binding of serum 62 to looped/cyclic peptides of protein X5 of SARS-CoV Urbani [1]: 0.7
Binding of serum London to linear peptides of protein X5 of SARS-CoV Urbani [1]: 0.7
Binding of serum London to looped/cyclic peptides of protein X5 of SARS-CoV Urbani [1]: 0.1
Binding of serum SARS-green to linear peptides of protein X5 of SARS-CoV Urbani [1]: 0.6
Binding of serum SARS-green to looped/cyclic peptides of protein X5 of SARS-CoV Urbani [1]: 0.3
Binding of serum SARS-yellow to linear peptides of protein X5 of SARS-CoV Urbani [1]: 0.5
Binding of serum SARS-yellow to looped/cyclic peptides of protein X5 of SARS-CoV Urbani [1]: 0.5
Rabbit serum linear peptides [2]: 0.8
Rabbit serum looped peptides [2]: 0.5
Binding of Control Serum Blood-Bank to Looped peptides [3]: 0.4
Binding of Control serum Blood-bank to linear peptides [3]: 0.8
Binding of Control serum LUMC to linear peptides [3]: 0.7
Binding of Control serum LUMC to looped peptides [3]: 0.5

PAGGALIARCWYLHE
Binding of serum 1a to linear peptides of protein X5 of SARS-CoV Urbani [1]: 0.8
Binding of serum 1a to looped/cyclic peptides of protein X5 of SARS-CoV Urbani [1]: 0.8
Binding of serum 1b to linear peptides of protein X5 of SARS-CoV Urbani [1]: 0.9
Binding of serum 1b to looped/cyclic peptides of protein X5 of SARS-CoV Urbani [1]: 0.6
Binding of serum 2 to linear peptides of protein X5 of SARS-CoV Urbani [1]: 0.6
Binding of serum 2 to looped/cyclic peptides of protein X5 of SARS-CoV Urbani [1]: 0.6
Binding of serum 6 to linear peptides of protein X5 of SARS-CoV Urbani [1]: 0.8
Binding of serum 6 to looped/cyclic peptides of protein X5 of SARS-CoV Urbani [1]: 0.4
Binding of serum 37 to linear peptides of protein X5 of SARS-CoV Urbani [1]: 0.9
Binding of serum 37 to looped/cyclic peptides of protein X5 of SARS-CoV Urbani [1]: 0.7
Binding of serum 62 to linear peptides of protein X5 of SARS-CoV Urbani [1]: 0.9
Binding of serum 62 to looped/cyclic peptides of protein X5 of SARS-CoV Urbani [1]: 0.7
Binding of serum London to linear peptides of protein X5 of SARS-CoV Urbani [1]: 0.7
Binding of serum London to looped/cyclic peptides of protein X5 of SARS-CoV Urbani [1]: 0.3
Binding of serum SARS-green to linear peptides of protein X5 of SARS-CoV Urbani [1]: 0.9
Binding of serum SARS-green to looped/cyclic peptides of protein X5 of SARS-CoV Urbani [1]: 0.6
Binding of serum SARS-yellow to linear peptides of protein X5 of SARS-CoV Urbani [1]: 0.3
Binding of serum SARS-yellow to looped/cyclic peptides of protein X5 of SARS-CoV Urbani [1]: 0.5
Rabbit serum linear peptides [2]: 0.5
Rabbit serum looped peptides [2]: 0.5
Binding of Control Serum Blood-Bank to Looped peptides [3]: 0.8
Binding of Control serum Blood-bank to linear peptides [3]: 0.7
Binding of Control serum LUMC to linear peptides [3]: 0.4
Binding of Control serum LUMC to looped peptides [3]: 0.5
